Laboratory results taken from PubChem BioAssay (NCI).
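How tested: cells in 96-well plates exposed to compound for 48 hours at five concentrations. GI50 marks 50% less growth. TGI marks complete inhibition of growth.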

Experiments:
Test in all cases: NCI-60 cell line screen, 48 h
HCT-116 colon = system: HCT-116 colon
A498 renal = system: A498 renal
HS 578T breast = system: HS 578T breast
CCRF-CEM leukemia = system: CCRF-CEM leukemia
OVCAR-8 ovarian = system: OVCAR-8 ovarian
UO-31 renal = system: UO-31 renal
SK-MEL-28 melanoma = system: SK-MEL-28 melanoma
MCF7 breast = system: MCF7 breast
OVCAR-5 ovarian = system: OVCAR-5 ovarian
M14 melanoma = system: M14 melanoma
786-0 renal = system: 786-0 renal
EKVX NSCLC = system: EKVX NSCLC
HCT-15 colon = system: HCT-15 colon
BT-549 breast = system: BT-549 breast
SF-295 CNS = system: SF-295 CNS
MDA-MB-231 breast = system: MDA-MB-231 breast
K-562 leukemia = system: K-562 leukemia
IGROV1 ovarian = system: IGROV1 ovarian
TK-10 renal = system: TK-10 renal
SF-268 CNS = system: SF-268 CNS
T-47D breast = system: T-47D breast
HOP-62 NSCLC = system: HOP-62 NSCLC
SNB-19 CNS = system: SNB-19 CNS
ACHN renal = system: ACHN renal
OVCAR-3 ovarian = system: OVCAR-3 ovarian
MALME-3M melanoma = system: MALME-3M melanoma
RXF 393 renal = system: RXF 393 renal
U251 CNS = system: U251 CNS
HOP-92 NSCLC = system: HOP-92 NSCLC
SW-620 colon = system: SW-620 colon
SF-539 CNS = system: SF-539 CNS
PC-3 prostate = system: PC-3 prostate
NCI-H226 lung = system: NCI-H226 lung
LOX IMVI melanoma = system: LOX IMVI melanoma
HT29 colon = system: HT29 colon
MOLT-4 leukemia = system: MOLT-4 leukemia
KM12 colon = system: KM12 colon
SK-OV-3 ovarian = system: SK-OV-3 ovarian
NCI/ADR-RES ovarian = system: NCI/ADR-RES ovarian
NCI-H460 lung = system: NCI-H460 lung
SK-MEL-5 melanoma = system: SK-MEL-5 melanoma
MDA-MB-435 = system: MDA-MB-435
UACC-62 melanoma = system: UACC-62 melanoma
DU-145 prostate = system: DU-145 prostate
SN12C renal = system: SN12C renal
CAKI-1 renal = system: CAKI-1 renal
COLO 205 colon = system: COLO 205 colon
OVCAR-4 ovarian = system: OVCAR-4 ovarian
A549 NSCLC = system: A549 NSCLC
UACC-257 melanoma = system: UACC-257 melanoma
NCI-H23 lung = system: NCI-H23 lung
HL-60(TB) leukemia = system: HL-60(TB) leukemia
NCI-H522 lung = system: NCI-H522 lung

SMILES: COc1cc(/C=C2\CC3C4CCC5=CC(=O)CC[C@]5(C)C4CC[C@]3(C)C2=O)ccc1OCCCn1ccnc1 (stereo partly specified)
- GI50 (HCT-116 colon): 2.7 µM
- TGI (HCT-116 colon): 13.1 µM
- GI50 (A498 renal): 11.6 µM
- TGI (A498 renal): 23.9 µM
- GI50 (HS 578T breast): 8.45 µM
- TGI (HS 578T breast): 29.8 µM
- GI50 (CCRF-CEM leukemia): 3.35 µM
- TGI (CCRF-CEM leukemia): 10 µM
- GI50 (OVCAR-8 ovarian): 5.93 µM
- TGI (OVCAR-8 ovarian): 22.1 µM
- GI50 (UO-31 renal): 4.36 µM
- TGI (UO-31 renal): 16.2 µM
- GI50 (SK-MEL-28 melanoma): 6.55 µM
- TGI (SK-MEL-28 melanoma): 25.9 µM
- GI50 (MCF7 breast): 4.02 µM
- TGI (MCF7 breast): 19.9 µM
- GI50 (OVCAR-5 ovarian): 18.6 µM
- TGI (OVCAR-5 ovarian): 37.9 µM
- GI50 (M14 melanoma): 5.87 µM
- TGI (M14 melanoma): 23.7 µM
- GI50 (786-0 renal): 11.6 µM
- TGI (786-0 renal): 23.8 µM
- GI50 (EKVX NSCLC): 17.6 µM
- TGI (EKVX NSCLC): 45 µM
- GI50 (HCT-15 colon): 4.03 µM
- TGI (HCT-15 colon): 16.2 µM
- GI50 (BT-549 breast): 4.45 µM
- TGI (BT-549 breast): 33.4 µM
- GI50 (SF-295 CNS): 2.47 µM
- TGI (SF-295 CNS): 7.41 µM
- GI50 (MDA-MB-231 breast): 5.04 µM
- TGI (MDA-MB-231 breast): 21 µM
- GI50 (K-562 leukemia): 2.69 µM
- TGI (K-562 leukemia): 12.9 µM
- GI50 (IGROV1 ovarian): 9.13 µM
- TGI (IGROV1 ovarian): 29.5 µM
- GI50 (TK-10 renal): 15.1 µM
- TGI (TK-10 renal): 31.2 µM
- GI50 (SF-268 CNS): 13.6 µM
- TGI (SF-268 CNS): 34.4 µM
- GI50 (T-47D breast): 5.23 µM
- TGI (T-47D breast): 19 µM
- GI50 (HOP-62 NSCLC): 11.8 µM
- TGI (HOP-62 NSCLC): 25.2 µM
- GI50 (SNB-19 CNS): 21.6 µM
- TGI (SNB-19 CNS): > 100 µM
- GI50 (ACHN renal): 10.2 µM
- TGI (ACHN renal): 21.8 µM
- GI50 (OVCAR-3 ovarian): 5.17 µM
- TGI (OVCAR-3 ovarian): 19.4 µM
- GI50 (MALME-3M melanoma): 3.11 µM
- TGI (MALME-3M melanoma): 13.5 µM
- GI50 (RXF 393 renal): 0.0969 µM
- TGI (RXF 393 renal): 6.94 µM
- GI50 (U251 CNS): 9.09 µM
- TGI (U251 CNS): 21.2 µM
- GI50 (HOP-92 NSCLC): 6.22 µM
- TGI (HOP-92 NSCLC): 22.8 µM
- GI50 (SW-620 colon): 8.23 µM
- TGI (SW-620 colon): 23.1 µM
- GI50 (SF-539 CNS): 7.21 µM
- TGI (SF-539 CNS): 21.7 µM
- GI50 (PC-3 prostate): 4.1 µM
- TGI (PC-3 prostate): 20.2 µM
- GI50 (NCI-H226 lung): 11.2 µM
- TGI (NCI-H226 lung): 27.5 µM
- GI50 (LOX IMVI melanoma): 3.75 µM
- TGI (LOX IMVI melanoma): 14.4 µM
- GI50 (HT29 colon): 0.794 µM
- TGI (HT29 colon): 11.6 µM
- GI50 (MOLT-4 leukemia): 4.09 µM
- TGI (MOLT-4 leukemia): 18.9 µM
- GI50 (KM12 colon): 3.75 µM
- TGI (KM12 colon): 20 µM
- GI50 (SK-OV-3 ovarian): 15.7 µM
- TGI (SK-OV-3 ovarian): 30.2 µM
- GI50 (NCI/ADR-RES ovarian): 4.51 µM
- TGI (NCI/ADR-RES ovarian): 18.5 µM
- GI50 (NCI-H460 lung): 4.68 µM
- TGI (NCI-H460 lung): 24.5 µM
- GI50 (SK-MEL-5 melanoma): 2.07 µM
- TGI (SK-MEL-5 melanoma): 7.1 µM
- GI50 (MDA-MB-435): 5.04 µM
- TGI (MDA-MB-435): 25.6 µM
- GI50 (UACC-62 melanoma): 5.18 µM
- TGI (UACC-62 melanoma): 24.9 µM
- GI50 (DU-145 prostate): 11.8 µM
- TGI (DU-145 prostate): 24.1 µM
- GI50 (SN12C renal): 1.76 µM
- TGI (SN12C renal): 8.5 µM
- GI50 (CAKI-1 renal): 8.97 µM
- TGI (CAKI-1 renal): 26.9 µM
- GI50 (COLO 205 colon): 4.52 µM
- TGI (COLO 205 colon): 22.7 µM
- GI50 (OVCAR-4 ovarian): 12.4 µM
- TGI (OVCAR-4 ovarian): > 100 µM
- GI50 (A549 NSCLC): 5.32 µM
- TGI (A549 NSCLC): 21.7 µM
- GI50 (UACC-257 melanoma): 2.1 µM
- TGI (UACC-257 melanoma): 7.47 µM
- GI50 (NCI-H23 lung): 2.22 µM
- TGI (NCI-H23 lung): 4.43 µM
- GI50 (HL-60(TB) leukemia): 2.86 µM
- TGI (HL-60(TB) leukemia): 10.2 µM
- GI50 (NCI-H522 lung): 3.8 µM
- TGI (NCI-H522 lung): 16.1 µM
